Data set [1] relates to Normal Rat. Briefly: Measurement of urine excretion using a nitrosated diuretic compound, intravenous. It is filed as in vivo, Male Wistar rats. The conditions noted are these: for Total Urine Volume (ml) at: 0.5 h / Total Urine Volume (ml) at: 1 h / Total Urine Volume (ml) at: 2 h: normal rat, intravenous slow bolus, 3 mg/kg (Example 12: 3 mg/kg equivalent), n = 6.
Data set [2] deals with Normal Rat. In kind it is in vivo, Male Wistar rats. The conditions noted are these: intravenous slow bolus, 1 mg/kg (each compound), n = 3.

Where two headings read alike, the source gives them in different places.

The melting point is the temperature of the solid-liquid transition. Compound `NS(=O)(=O)c1cc(C(=O)OCC(=O)NCCO[N+](=O)[O-])c(NCc2ccco2)cc1Cl` yielded a melting point of 135 °C.

`C[C@@H](CNC(=O)COC(=O)c1cc(S(N)(=O)=O)c(Cl)cc1NCc1ccco1)O[N+](=O)[O-]`: the melting point is 125 to 138 °C (dec.).

In the case of `NS(=O)(=O)c1cc(C(=O)NCCOC(=O)[C@@H]2CCCN2[15N]=O)c(NCc2ccco2)cc1Cl`, the melting point is 51 to 61 °C.

Compound `NS(=O)(=O)c1cc(C(=O)OC[C@H]2CCCN2N=O)c(NCc2ccco2)cc1Cl` returned a melting point of 79 to 81 °C.

Compound `CN(CCO[N+](=O)[O-])C(=O)COC(=O)c1cc(S(N)(=O)=O)c(Cl)cc1NCc1ccco1` had a melting point of 70 to 72 °C.

For the compound `NS(=O)(=O)c1cc(C(=O)OCC(=O)N2CCC(CO[N+](=O)[O-])CC2)c(NCc2ccco2)cc1Cl`, the melting point was 115 to 117 °C.

Regarding `NS(=O)(=O)c1cc(C(=O)OCC(=O)N2CCC(CCO[N+](=O)[O-])CC2)c(NCc2ccco2)cc1Cl`, the melting point was 170 °C.

The compound `CCN(CCO[N+](=O)[O-])C(=O)COC(=O)c1cc(S(N)(=O)=O)c(Cl)cc1NCc1ccco1` came in with a melting point of 60 to 62 °C.

Compound `NS(=O)(=O)c1cc(C(=O)OCC(=O)N[C@@H](CCO[N+](=O)[O-])CO[N+](=O)[O-])c(NCc2ccco2)cc1Cl` came in with a melting point of 115 to 118 °C.

Take `NS(=O)(=O)c1cc(C(=O)OCC(=O)N2CCC[C@@H]2CO[N+](=O)[O-])c(NCc2ccco2)cc1Cl`: the melting point was 64 to 66 °C.

As for `NS(=O)(=O)c1cc(C(=O)OCC(=O)NC[C@H](CO[N+](=O)[O-])O[N+](=O)[O-])c(NCc2ccco2)cc1Cl` [Example 12, (N-((2R)-2,3-Bis(nitrooxy)propyl)carbamoyl)methyl4-chloro-2-((2-furylmethyl)amino)-5-sulfamoylbenzoate], the melting point is 143 to 153 °C (dec.). Also, in data set [1], the “Total Urine Volume (ml) at: 0.5 h” value was determined as 4.2 ± 0.4 mL, the “Total Urine Volume (ml) at: 1 h” value came out at 5.3 ± 0.5 mL and the “Total Urine Volume (ml) at: 2 h” value was 6.2 ± 0.5 mL. Further, the “Diuresis in the rat” value in data set [1] (rat, intravenous, 3 mg/kg equivalent) was “elicits diuresis”.

For the compound `NS(=O)(=O)c1cc(C(=O)O)c(NCc2ccco2)cc1Cl` [Furosemide, furosemide, reference compound], in data set [2] (1 h, mean ± spread), the “Total Urine Volume (ml) at: 1 h” value stood at 3.3 ± 1.7 mL. In addition, the “Total Urine Volume (ml) at: 2 h” value in data set [2] (2 h) amounted to 3.3 ± 1.7 mL. Further, the “Total Urine Volume (ml) at: 3 h” value in data set [2] (3 h) came out at 5.0 ± 0.6 mL. Besides, in data set [1], the “Total Urine Volume (ml) at: 0.5 h” value came to 6.7 ± 1.2 mL, the “Total Urine Volume (ml) at: 1 h” value was 8.8 ± 1.2 mL and the “Total Urine Volume (ml) at: 2 h” value came to 11.0 ± 1.3 mL.

These data come from US7282519B2 (priority 2003, dated 2007).
